Experimental data reported in publication PMC8009478, “Novel Curcumin-Diethyl Fumarate Hybrid as a Dualistic GSK-3β Inhibitor/Nrf2 Inducer for the Treatment of Parkinson’s Disease” (ACS Chemical Neuroscience, 2020).

How the values were obtained:
[1] = tested on: C. elegans BY250 [vtIs7 (Pdat-1:GFP)] CEP neurons; assay: 6-OHDA-induced neurodegeneration of CEP neurons in the C. elegans model of PD; type: in vivo, Caenorhabditis elegans; conditions: cotreatment 5 μM with 6-OHDA 5 mM for 30 min, scored after 72 h
From the text: The nematode Caenorhabditis elegans (C. elegans) has been increasingly employed as a genetically tractable in vivo model to study the molecular mechanisms involved in several NDDs due to a short life cycle, fast reproduction, and a highly conserved inheritance (genetic basis).[35] This invertebrate model offers the opportunity to take advantage of the significant conservation of genes and metabolic pathways common to both invertebrates and humans. At the neuronal level, the adult wild-type C. elegans organism contains only eight DA neurons that repeat the features of DA neurons of mammalian, making it possible to simplify the investigations considerably. In the transgenic BY250 [vtIs7 (Pdat-1:GFP)] strain, six DA neurons in the head, namely the four sensory cephalic (CEP) and the two anterior deirid (ADE) neurons, express the green fluorescent protein (GFP) and can be clearly visualized by fluorescence microscopy analysis and thus scored over time.[36] Indeed, in this model, investigations of DA neurons degeneration in vivo are feasible through a first exposition of the nematode to PD-inducing toxin, namely 6-OHDA, followed by direct visualization of the GFP-labeled DA neurons.[37] It is thus possible to screen small molecules for their anti-PD potential, in terms of rescue of the DA neurodegeneration phenotype manifested upon neurotoxin exposure, through visualization and scoring of the alterations of CEP neuron count or neuronal morphology. […] This effect makes it possible the identification of neuroprotective agents with the ability to activate Nrf2 through the inhibition of GSK-3.[38] The curcumin-DEF hybrids 4 and 5 were investigated in the above C. elegans model for their protective effects on 6-OHDA-induced degeneration of a subclass of DA neurons. Animals were incubated with 5 μM concentration of 4 and 5, in the presence of 5 mM of 6-OHDA, for 30 min. After 72 h, the animals were studied by examining the four CEP neurons. Degenerating CEP neurons were morphologically analyzed and quantified (Figure 8). We recorded that in animals treated with 6-OHDA, 68% of CEP neurons degenerated.
Figure 8 Effects of 4 and 5 on 6-OHDA-induced neurodegeneration in C. elegans. Animals were treated with 4 or 5 (5 μM) in the presence of 6-OHDA (5 mM) for 30 min. At the end of incubation, treated animals were placed on fresh agar plates for 72 h and then visualized as described in the Materials and Methods section. (A) In nontreated vtIs7 [pdat-1::GFP] transgenic animals, dopaminergic neurons express GFP, with two of the four CEP cell bodies (white arrows) and relative dendrites (arrowheads) visible in this focal plane in the head. (B) 6-OHDA treatment causes the degeneration of CEP dendrites (empty arrowheads) and two cell bodies (gray arrows), in treated animals. The other two CEP neurons are not visible anymore. (C) Compound 5 cotreatment partially rescues the 6-OHDA-induced toxic effects, with degeneration of one of the CEP dendrites (empty arrowhead) but not the other (arrowhead) and with one CEP cell body still viable (white arrow) and one dying (gray arrow) in this focal plane. […] ADE neurons, which are less affected by 6-OHDA treatment, are also visible but were not scored (asterisks). (D) Quantification of degenerating CEP neurons. Data are expressed as percentages of degenerating neurons and reported as mean ± SEM of at least three independent experiments. […]

SH-SY5Y cells [2] = assay: Intracellular GSH levels (MCB probe); type: cell-based, human; conditions: 5 μM; for increase in GSH levels as compared to control: 24 h; for GSH quantity at different times: after 12 and 24 h of treatment (3–24 h studied)
Procedure: By observing the reduction of ROS levels following a long treatment of the curcumin-DEF hybrids before the treatment with t-BuOOH, we hypothesized that the antioxidant effect might likely result from an increase in levels of GSH. This endogenous antioxidant plays critical roles in protecting cells against oxidative stress damage.[32] Thus, the intracellular GSH levels were analyzed by employing the same experimental conditions used to evaluate the indirect antioxidant effect by fluorescent probe monochlorobimane (MCB). […] For the most promising compounds 4 and 5, the effect on GSH levels at different times (3–24 h) was studied.
Figure 4 Effects of compounds 4–7 and DMF on GSH levels in SH-SY5Y cells. Cells were treated with (A) compounds 4–7 (5 μM) and DMF (5 and 10 μM) for 24 h. (B) Cells were treated with compounds 4 and 5 (5 μM) for different times (3, 6, 12, and 24 h). At the end of the treatment, the GSH levels were evaluated by probe MCB. Results are expressed as mean ± SEM of at least three independent experiments (** p < 0.01 and *** p < 0.001 vs untreated cells at one-way ANOVA with the Dunnett post hoc test).
GSH levels were evaluated by using the fluorescent probe MCB, as previously described.[44]

SH-SY5Y cells [3] = assay: Neuroprotection against Aβ1–42 oligomers, MTT assay; type: cell-based, human; conditions: 5 μM for 24 h, then OAβ1–42 10 μM for 4 h
Procedure: Intracellular accumulation of soluble Aβ1–42 oligomers is responsible for neurotoxic effects, such as neuronal death, and represents a key event in AD pathogenesis.[33] […] Briefly, SH-SY5Y cells were incubated with 5 μM concentration of the selected analogues for 24 h, followed by OAβ1–42 oligomers treatment (10 μM) for 4 h (Figure 6A).
Figure 6 Effects of 4 and 5 on neurotoxicity induced by OAβ1–42 oligomers and 6-OHDA in SH-SY5Y cells. (A) Cells were incubated with 4 and 5 (5 μM, for 24 h) and then treated with OAβ1–42 (10 μM, for 4 h). (B) Cells were incubated with compounds 4 and 5 (5 μM, for 24 h), then treated with 6-OHDA (100 μM, for 2 h), and then starved in complete medium for 22 h. The neurotoxicity was evaluated by an MTT assay. Data are expressed as percentages of neurotoxicity versus cells treated with Aβ1–42 oligomers or 6-OHDA and reported as mean ± SEM of at least three independent experiments (* p < 0.05 versus cells treated with 6-OHDA at one-way ANOVA with the Dunnett post hoc test). […]
Then, cells were treated with Aβ1–42 oligomers for 4 h. The neuroprotective activity, in terms of an increase in intracellular MTT granules, was measured by an MTT assay, as previously described (see the Supporting Information for experimental details).[46]

| Structure (SMILES) | degenerating CEP neurons [1] | rescue of the 6-OHDA-induced degeneration phenotype [1] | increase in GSH levels as compared to control (SH-SY5Y cells [2]) | GSH quantity at different times (SH-SY5Y cells [2]) | prevention of Aβ1–42 oligomers-induced cell death (SH-SY5Y cells [3]) |
| --- | --- | --- | --- | --- | --- |
| CCOC(=O)/C=C/C(C(=O)/C=C/c1ccc(OC)cc1)=C(O)\C=C\c1ccc(OCc2ccccc2)cc1 [Compound 5, Ethyl (2E,4Z,6E)-7-(4-(Benzyloxy)phenyl)-5-hydroxy-4-((E)-3-(4-methoxyphenyl)acryloyl)hepta-2,4,6-trienoate] | 55% | partial rescue | 4 fold | significant increase | failed to prevent Aβ1–42 oligomers-induced cell death |
| CCOC(=O)/C=C/C(C(=O)/C=C/c1ccc(OC)cc1)=C(O)\C=C\c1ccc(OC)cc1 [Compound 4, Ethyl (2E,4Z,6E)-5-Hydroxy-7-(4-methoxyphenyl)-4-((E)-3-(4-methoxyphenyl)acryloyl)hepta-2,4,6-trienoate] | 67% | no rescue | 4 fold | significant increase | failed to prevent Aβ1–42 oligomers-induced cell death |
